Measured values taken from patent US4381303A, “1,4,9,10-Tetrahydro-pyrazolo [4,3-]pyrido[-3,2-b][1,4]diazepin-10-ones” (Dr. Karl Thomae GmbH, priority 1981, dated 1983).

Key:
[1] = system: Pain of Inflammation on the Back Paw of the Rat; assay: Activity against the pain of inflammation on the back paw of the rat (RANDALL-SELITTO); format: in vivo, rat (male Chbb:THOM-rats); conditions: po, 1.5 h, dose at which pain threshold rises by 50% vs controls, esophageal tube, 1% methyl cellulose, 90 minutes after phlogistic, 90 minutes before determination, linear regression
Description: (§1) were tested with regard to analgesic activity in the rat, analgesic activity in the mouse, and acute toxicity in the mouse:
1. Activity against the Pain of Inflammation on the Back Paw of the Rat
The activity against the pain caused by inflammation was tested according to the method of RANDALL-SELITTO [Arch. Int. Pharmacodyn., 111, 409 (1957)]. Male Chbb:THOM-rats having body weights of from 100 to 130 grams received a subplantar injection of 0.1 ml of a suspension of 1,12 g of dry yeast in 18.9 ml of a 5.5% glucose solution into a back paw.
At 90 minutes after injection of the phlogistic, that is, ninety minutes before determination of the pain threshold, the animals received various doses of the test substances as a trituration in 1% methyl cellulose (1 ml/100 gm of animal) through an esophageal tube. Control animals received corresponding volumes of the vehicle. The pain threshold was determined in the rat in terms of the grams of bearing pressure on a paw, based on the weight of the animal.
From the pain threshold, measured according to the various doses of the test substance, and with linear regression analysis according to LINDER [Statistische Methoden, 4th ed., pp. 148-162, Birkhauser, Basel, 1964] an ED50 was determined. The ED50 dose is one in which the pain threshold rises by 50%, as compared to the controls.

[2] = system: Sensitivity of the Mouse in the Hot Plate Test; assay: Activity against the sensitivity of the mouse in the hot plate test (CHEN and BECKMAN); format: in vivo, mouse (male Chbb:NMRI (SPF)-mice); conditions: po, dose increasing time of reaction by 100%, hot plate 52° C., esophageal tube, 1% methyl cellulose, linear regression
Description: as §1
2. Activity against the Sensitivity of the Mouse in the Hot Plate Test
The test was performed according to the method described by CHEN and BECKMAN [Science, 113, 631 (1951)] in male Chbb:NMRI (SPF)-mice with an average weight of 20 grams.
The test substances were administered as trituration in 1% methyl cellulose (0.1 ml/10 gm of mouse) by means of an esophageal tube. Before treatment with the test substances, the animals were twice put on the hot plate at intervals of 30 to 120 minutes, whereby their individual times of reaction were measured. After treatment with a test substance, the times of reaction of the animals were again measured in intervals of 30 to 120 minutes.
From the average maximum increase of the time of reaction obtained after treatment with different doses, and after linear regression analysis according to LINDER, an ED100 dose was calculated. The ED100 dose is one which increased the time of reaction by 100%.

Acute toxicity in mice = format: in vivo; conditions: in vivo, po; mouse, esophageal tube, 1% methyl cellulose; deaths within 14 days; LITCHFIELD and WILCOXON
Description: as §1
(§2) 3. Acute Toxicity in Mice
(§3) The acute toxicity was determined in Chbb:NMRI (SPF)-mice of both sexes, having an average body weight of 20 grams. The test compounds were administered as a trituration in 1% methyl cellulose (0.2 ml/10 gm of animal) by means of an esophageal tube. The calculation of the LD50 values was effected according to the method of LITCHFIELD and WILCOXON [J. Pharmacol. Exp. Ther., 96, 99 (1949)], based upon the percentage of animals which died within 14 days after administration of different doses.

Chbb:NMRI (SPF)-mice = assay: Acute toxicity in mice; format: in vivo; conditions: dose 1000 mg/kg (footnote * of Table 3), mouse, esophageal tube, within 14 days
Description: as §1, §2, §3

`CCCCN1C(=O)c2c(c(C)nn2C)Nc2ncccc21` [F, 9-(n-butyl)-1,3-dimethyl-1,4,9,10-tetrahydro-pyrazolo[4,3-e]pyrido[3,2-b][1,4]diazepin-10-one] gave an ED50 [1] of 139 mg/kg, an ED100 [2] of 87 mg/kg and an LD50 at 336 h (Acute toxicity in mice) greater than 1000 mg/kg. The “animals died after administration of this dose” value (Chbb:NMRI (SPF)-mice) was 1 out of 8.
For `Cc1nn(C)c2c1Nc1ncccc1N(C)C2=O` [B, 1,4,9,10-tetrahydro-1,3,9-trimethyl-pyrazolo[4,3-e]pyrido[3,2-b][1,4]diazepin-10-one], the ED50 [1] was 11 mg/kg, the ED100 [2] was 30 mg/kg and the LD50 at 336 h (Acute toxicity in mice) was 175 mg/kg.
For `CCN1C(=O)c2c(c(C)nn2C)Nc2ncccc21` [C, 1,3-dimethyl-9-ethyl-1,4,9,10-tetrahydro-pyrazolo[4,3-e]pyrido[3,2-b][1,4]diazepin-10-one], the ED50 [1] was 28 mg/kg, the ED100 [2] was 28 mg/kg and the LD50 at 336 h (Acute toxicity in mice) was 171 mg/kg.
`CCN1C(=O)c2c(c(C)nn2C)N(C)c2ncccc21` [E, 9-ethyl-1,4,9,10-tetrahydro-1,3,4-trimethyl-pyrazolo[4,3-e]pyrido[3,2-b][1,4]diazepin-10-one] gave an ED50 [1] of 5.9 mg/kg and an LD50 at 336 h (Acute toxicity in mice) of 202 mg/kg.
Compound `Cc1nn(C)c2c1N(C)c1ncccc1N(C)C2=O` [D, 1,4,9,10-tetrahydro-1,3,4,9-tetramethyl-pyrazolo[4,3-e]pyrido[3,2-b][1,4]diazepin-10-one] has an ED50 [1] of 7.4 mg/kg and an LD50 at 336 h (Acute toxicity in mice) of 225 mg/kg.
For `Cc1nn(C)c2c1Nc1ncccc1NC2=O` [A, 1,3-dimethyl-1,4,9,10-tetrahydro-pyrazolo[4,3-e]pyrido[3,2-b][1,4]diazepin-10-one], the ED50 [1] was 26 mg/kg, the ED100 [2] was 15 mg/kg and the LD50 at 336 h (Acute toxicity in mice) was 152 mg/kg.
